In PubChem BioAssay AID1963434 (Molecular Pharmacology Branch, DTP, NCI, 2024):
“And” between values parts separate entries of the source, which are not always exact repeats. Identical values can stand only once.

System: 755483-174-R-J1-PDC complex spheroid growth, percent test/control
Assay: Anticancer human tumor 755483-174-R-J1-PDC patient-derived rhabdomyosarcoma cell line growth inhibition [Asc]
Settings: for viability, T/C: stronger effect = lower value
Outline: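 Complex solid-tumor spheroids incorporating human endothelial and mesenchymal stem cells received single agents or combinations over half-log dilution ranges anchored to clinical Cmax.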

[1] = curve of first compound, second compound 0.01 µM
[2] = curve of first compound, second compound 0.0316 µM
[3] = curve of first compound, second compound 0.1 µM
[4] = curve of first compound, second compound 0.316 µM
[5] = curve of first compound, second compound 1 µM
[6] = second compound 0.01 µM, first compound 0.00316 µM
[7] = second compound 0.01 µM, first compound 0.01 µM
[8] = second compound 0.01 µM, first compound 0.0316 µM
[9] = second compound 0.01 µM, first compound 0.1 µM
[10] = second compound 0.01 µM, first compound 0.316 µM
[11] = second compound 0.01 µM, first compound 1 µM
[12] = second compound 0.0316 µM, first compound 0.00316 µM
[13] = second compound 0.0316 µM, first compound 0.01 µM
[14] = second compound 0.0316 µM, first compound 0.0316 µM
[15] = second compound 0.0316 µM, first compound 0.1 µM
[16] = second compound 0.0316 µM, first compound 0.316 µM
[17] = second compound 0.0316 µM, first compound 1 µM
[18] = second compound 0.1 µM, first compound 0.00316 µM
[19] = second compound 0.1 µM, first compound 0.01 µM
[20] = second compound 0.1 µM, first compound 0.0316 µM
[21] = second compound 0.1 µM, first compound 0.1 µM
[22] = second compound 0.1 µM, first compound 0.316 µM
[23] = second compound 0.1 µM, first compound 1 µM
[24] = second compound 0.316 µM, first compound 0.00316 µM
[25] = second compound 0.316 µM, first compound 0.01 µM
[26] = second compound 0.316 µM, first compound 0.0316 µM
[27] = second compound 0.316 µM, first compound 0.1 µM
[28] = second compound 0.316 µM, first compound 0.316 µM
[29] = second compound 0.316 µM, first compound 1 µM
[30] = second compound 1 µM, first compound 0.00316 µM
[31] = second compound 1 µM, first compound 0.01 µM
[32] = second compound 1 µM, first compound 0.0316 µM
[33] = second compound 1 µM, first compound 0.1 µM
[34] = second compound 1 µM, first compound 0.316 µM
[35] = second compound 1 µM, first compound 1 µM
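Further: spheroids exposed to compounds for seven days before readout.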

For `Cc1nc(N2CCC3(CC2)COC(C)C3N)c(CO)nc1Sc1ccnc(N)c1Cl` (centres undefined) + CCN1C(C(=O)NC23CCC(C(=O)O)(CC2)CC3)C(c2cccc(Cl)c2F)C2(C(=O)Nc3cc(Cl)ccc32)C12CCCCC2, the IC50 (curve of first compound, second compound 0.03 µM) was 442 nM, the IC50 (curve of first compound, second compound 0.0949 µM) was 371 nM and the IC50 (curve of first compound, second compound 0.3 µM) was 387 nM. The IC50 (curve of first compound, second compound 0.949 µM) was 232 nM, the IC50 (curve of first compound, second compound 3 µM) was 315 nM and the viability, T/C (second compound 0.03 µM, first compound 0.00949 µM) was 111%. For the same molecule, the viability, T/C (second compound 0.03 µM, first compound 0.03 µM) was 93.4%, the viability, T/C (second compound 0.03 µM, first compound 0.0949 µM) was 80.7% and the viability, T/C (second compound 0.03 µM, first compound 0.3 µM) was 58.6%. The viability, T/C (second compound 0.03 µM, first compound 0.949 µM) was 33.4%, the viability, T/C (second compound 0.03 µM, first compound 3 µM) was 19.6% and the viability, T/C (second compound 0.0949 µM, first compound 0.00949 µM) was 113%. It also gave a viability, T/C (second compound 0.0949 µM, first compound 0.03 µM) of 106%, a viability, T/C (second compound 0.0949 µM, first compound 0.0949 µM) of 106% and a viability, T/C (second compound 0.0949 µM, first compound 0.3 µM) of 52.9%. For the same molecule, the viability, T/C (second compound 0.0949 µM, first compound 0.949 µM) was 39.2%, the viability, T/C (second compound 0.0949 µM, first compound 3 µM) was 21.1% and the viability, T/C (second compound 0.3 µM, first compound 0.00949 µM) was 89.5%. It also gave a viability, T/C (second compound 0.3 µM, first compound 0.03 µM) of 87.6%, a viability, T/C (second compound 0.3 µM, first compound 0.0949 µM) of 62.1% and a viability, T/C (second compound 0.3 µM, first compound 0.3 µM) of 51.6%. It also gave a viability, T/C (second compound 0.3 µM, first compound 0.949 µM) of 42.5%, a viability, T/C (second compound 0.3 µM, first compound 3 µM) of 18.5% and a viability, T/C (second compound 0.949 µM, first compound 0.00949 µM) of 105%. The viability, T/C (second compound 0.949 µM, first compound 0.03 µM) was 82.9%, the viability, T/C (second compound 0.949 µM, first compound 0.0949 µM) was 84.1% and the viability, T/C (second compound 0.949 µM, first compound 0.3 µM) was 40.1%. The viability, T/C (second compound 0.949 µM, first compound 0.949 µM) was 24.9%, the viability, T/C (second compound 0.949 µM, first compound 3 µM) was 27.1% and the viability, T/C (second compound 3 µM, first compound 0.00949 µM) was 111%. The viability, T/C (second compound 3 µM, first compound 0.03 µM) was 82.9%, the viability, T/C (second compound 3 µM, first compound 0.0949 µM) was 71.9% and the viability, T/C (second compound 3 µM, first compound 0.3 µM) was 50.1%. The viability, T/C (second compound 3 µM, first compound 0.949 µM) was 34.3% and the viability, T/C (second compound 3 µM, first compound 3 µM) was 21.1%.
In the case of `O=C(c1ccc(F)c(F)c1Nc1ccc(I)cc1F)N1CC(O)([C@@H]2CCCCN2)C1` + CNC(C)C(=O)NC1CN(S(=O)(=O)c2cccc(S(=O)(=O)N3CCC4CCC(C(=O)NC(c5ccccc5)c5ccccc5)N4C(=O)C(NC(=O)C(C)NC)C3)c2)CCC2CCC(C(=O)NC(c3ccccc3)c3ccccc3)N2C1=O, the IC50 [1] is reported as 92.3 nM, the IC50 [2] is reported as 27.7 nM and the IC50 [3] is reported as < 3.16 nM. For the same molecule, the IC50 [4] was < 3.16 nM, the IC50 [5] was < 3.16 nM and the viability, T/C [6] was 49.5%. For the same molecule, the viability, T/C [7] was 56.7%, the viability, T/C [8] was 51.5% and the viability, T/C [9] was 49.9%. It also gave a viability, T/C [10] of 29.4%, a viability, T/C [11] of 23.4% and a viability, T/C [12] of 56.5%. It also gave a viability, T/C [13] of 62.9%, a viability, T/C [14] of 36.2% and a viability, T/C [15] of 47.8%. It also gave a viability, T/C [16] of 41.7%, a viability, T/C [17] of 25.1% and a viability, T/C [18] of 38.5%. It also gave a viability, T/C [19] of 44.7%, a viability, T/C [20] of 38.6% and a viability, T/C [21] of 40.3%. The viability, T/C [22] was 23.1%, the viability, T/C [23] was 8.23% and the viability, T/C [24] was 35%. The viability, T/C [25] was 25.6%, the viability, T/C [26] was 56% and the viability, T/C [27] was 31.4%. It also gave a viability, T/C [28] of 20.5%, a viability, T/C [29] of 11.3% and a viability, T/C [30] of 23.6%. For the same molecule, the viability, T/C [31] was 24.4%, the viability, T/C [32] was 25.8% and the viability, T/C [33] was 30.4%. For the same molecule, the viability, T/C [34] was 17.1% and the viability, T/C [35] was 4.97%.
In the case of `C#Cc1c(F)ccc2cc(O)cc(-c3ncc4c(N5CC6CCC(C5)N6)nc(OCC56CCCN5CC(F)C6)nc4c3F)c12` (centres undefined), the viability, T/C (compound 0.0316 µM) is reported as 97.7% and 125% and 101%, the viability, T/C (compound 0.1 µM) is reported as 114% and 91.6% and 119% and the viability, T/C (compound 0.316 µM) is reported as 92.6% and 113% and 90.3%. For the same molecule, the viability, T/C (compound 1 µM) was 117% and 100% and 127%, the viability, T/C (compound 3.16 µM) was 85.7% and 76.6% and 92.3% and the viability, T/C (compound 10 µM) was 31.7% and 34.9% and 58.8%. For the same molecule, the IC50 (curve of compound) was 6770 nM and 6630 nM and > 10000 nM.
Work on `C=C(F)C(=O)N1CCN(c2nc(OCC3CCCN3C)nc3c2CCN(c2cccc4cccc(Cl)c24)C3)CC1CC#N` (centres undefined) + CNC(C)C(=O)NC1CN(S(=O)(=O)c2cccc(S(=O)(=O)N3CCC4CCC(C(=O)NC(c5ccccc5)c5ccccc5)N4C(=O)C(NC(=O)C(C)NC)C3)c2)CCC2CCC(C(=O)NC(c3ccccc3)c3ccccc3)N2C1=O yielded an IC50 [1] of 585 nM, an IC50 [2] of 336 nM and an IC50 [3] of 428 nM. For the same molecule, the IC50 [4] was < 31.6 nM, the IC50 [5] was < 31.6 nM and the viability, T/C [8] was 68.4%. It also gave a viability, T/C [9] of 62%, a viability, T/C [10] of 58.9% and a viability, T/C [11] of 40.6%. The viability, T/C (second compound 0.01 µM, first compound 3.16 µM) was 3.47%, the viability, T/C (second compound 0.01 µM, first compound 10 µM) was 0.12% and the viability, T/C [14] was 48.5%. It also gave a viability, T/C [15] of 56.7%, a viability, T/C [16] of 50.1% and a viability, T/C [17] of 32%. It also gave a viability, T/C (second compound 0.0316 µM, first compound 3.16 µM) of 2.46%, a viability, T/C (second compound 0.0316 µM, first compound 10 µM) of 0.12% and a viability, T/C [20] of 40%. For the same molecule, the viability, T/C [21] was 63.9%, the viability, T/C [22] was 66.2% and the viability, T/C [23] was 31.1%. The viability, T/C (second compound 0.1 µM, first compound 3.16 µM) was 17.1%, the viability, T/C (second compound 0.1 µM, first compound 10 µM) was 0.12% and the viability, T/C [26] was 26.6%. It also gave a viability, T/C [27] of 30.6%, a viability, T/C [28] of 38.7% and a viability, T/C [29] of 23.3%. For the same molecule, the viability, T/C (second compound 0.316 µM, first compound 3.16 µM) was 2.01%, the viability, T/C (second compound 0.316 µM, first compound 10 µM) was 0.12% and the viability, T/C [32] was 29.7%. It also gave a viability, T/C [33] of 34.6%, a viability, T/C [34] of 21.6% and a viability, T/C [35] of 13.1%. The viability, T/C (second compound 1 µM, first compound 3.16 µM) was 0.83% and the viability, T/C (second compound 1 µM, first compound 10 µM) was 0.19%.
In the case of `NC1CCC(NC2CC2c2ccccc2)CC1` (centres undefined), the viability, T/C (compound 0.000316 µM) is reported as 90.9% and 70.4% and 80.8%, the viability, T/C (compound 0.001 µM) is reported as 80.2% and 77.2% and 82.2% and the viability, T/C (compound 0.00316 µM) is reported as 77.8% and 102% and 61.7%. The viability, T/C (compound 0.01 µM) was 82.8% and 87.8% and 74.4%, the viability, T/C (compound 0.0316 µM) was 68.1% and 94.5% and 113% and the viability, T/C (compound 0.1 µM) was 79.2% and 83.4% and 66.6%. The IC50 (curve of compound) was > 100 nM.
`COc1c(OCCCN2CCOCC2)ccc2c3n(c(=NC(=O)c4cnc(N)nc4)nc12)CCN3` + CNC(C)C(=O)NC1CN(S(=O)(=O)c2cccc(S(=O)(=O)N3CCC4CCC(C(=O)NC(c5ccccc5)c5ccccc5)N4C(=O)C(NC(=O)C(C)NC)C3)c2)CCC2CCC(C(=O)NC(c3ccccc3)c3ccccc3)N2C1=O was tested, and the IC50 [1] was 21.4 nM, the IC50 [2] was < 3.16 nM and the IC50 [3] was < 3.16 nM. For the same molecule, the IC50 [4] was < 3.16 nM, the IC50 [5] was < 3.16 nM and the viability, T/C [6] was 59.1%. It also gave a viability, T/C [7] of 59.4%, a viability, T/C [8] of 45.7% and a viability, T/C [9] of 20.4%. It also gave a viability, T/C [10] of 8.95%, a viability, T/C [11] of 3.6% and a viability, T/C [12] of 41.9%. The viability, T/C [13] was 56.3%, the viability, T/C [14] was 40.2% and the viability, T/C [15] was 19%. The viability, T/C [16] was 5.22%, the viability, T/C [17] was 3.87% and the viability, T/C [18] was 36%. It also gave a viability, T/C [19] of 43.2%, a viability, T/C [20] of 35.6% and a viability, T/C [21] of 11.6%. The viability, T/C [22] was 6.95%, the viability, T/C [23] was 3.25% and the viability, T/C [24] was 32%. It also gave a viability, T/C [25] of 29.7%, a viability, T/C [26] of 51% and a viability, T/C [27] of 13.7%. The viability, T/C [28] was 6.6%, the viability, T/C [29] was 1.75% and the viability, T/C [30] was 35.4%. For the same molecule, the viability, T/C [31] was 16.7%, the viability, T/C [32] was 24.5% and the viability, T/C [33] was 27.5%. The viability, T/C [34] was 22.7% and the viability, T/C [35] was 1.36%.
